This is an account of results in patent US20120040966A1, “ANTI-VIRAL COMPOUNDS, TREATMENT, AND ASSAY” (priority 2008, published 2012).

The structures appear in SMILES notation. Read-outs that look alike come from different tables or passages of the source.

In assay [1] the test system is influenza strain A/VN/1203/2004 (H5N1). Put plainly: microbe, parasite or virus in culture. In kind it is cell-based, Influenza A virus (H5N1).
Assay [2] concerns Madin Darby Canine Kidney (MDCK) cells. Put plainly: cells. It is filed as cell-based. Particulars: Canis lupus familiaris, MDCK, read-out: IC50 (toxicity).
[3] abbreviates: Influenza A virus, H5N1, MDCK, 72 h, read-out: H5N1 EC50 (@ 50% Via).
Where [4] appears, read: Influenza A virus, H5N1, MDCK, 72 h, read-out: H5N1 EC50 (Inf Pt).
[5] abbreviates: read-out: H5N1 EC50 (@ 50% Via).

`COc1nc(-c2ccc3c(c2)OCO3)c2c(n1)-c1ccccc1CC2` [compound 22402]: the EC50 in assay [1] (setting [3]) is 8.4 µM; in assay [1] (setting [4]), 5.2 µM; in assay [1] (setting [5]) it was 14.5 µM; in assay [1] (read-out: H5N1 EC50 (Inf Pt)) it was 5.7 µM. In addition, the IC50 in assay [2] was above 50 µM.
As for `CCOC(=O)CCC(=O)N1CC2=C(NC(=O)NC2c2ccc(OC)c(Br)c2)c2ccccc21` (stereo not drawn) [compound 25484], in assay [1] (setting [3]), the EC50 was above 20 µM.
`Cc1ccc(-c2nc(=O)[nH]c3c2Cc2ccccc2-3)cc1` [compound 22084]: in assay [1] (setting [3]), the EC50 was above 50 µM. Besides, in assay [2], the IC50 was above 50 µM.
As to `COc1cccc(-c2nc(O)nc3c2CCc2c(OC)cccc2-3)c1` [compound 22112], the EC50 in assay [1] (setting [3]) and in assay [1] (setting [4]) was above 50 µM throughout. Besides, in assay [2], the IC50 is above 50 µM.
As to `COc1cccc2c1CCc1c(-c3ccc(C)c(C)c3)nc(O)nc1-2` [compound 22114], the EC50 in assay [1] (setting [3]) stood at 13.5 µM; in assay [1] (setting [5]), 9.1 µM. Besides, the IC50 in assay [2] was above 50 µM.
With `COc1ccc(C2NC(=O)NC3=C2Cc2ccccc23)cc1` (stereo not drawn) [compound 22127], the EC50 in assay [1] (setting [3]) and in assay [1] (setting [4]) was above 50 µM each time. Besides, the IC50 in assay [2] was above 50 µM.
As to `COc1ccc(C2NC(=O)NC3=C2CCc2ccccc23)cc1O` (stereo not drawn) [compound 22407], the EC50 in assay [1] (setting [3]) and in assay [1] (setting [4]) was above 50 µM in each case. Moreover, in assay [2], the IC50 is above 50 µM.
For `COc1ccc(C2NC(=O)NC3=C2CSc2ccccc23)cc1F` (stereo not drawn) [compound 22523], the EC50 was determined as 0.76 µM in assay [1] (setting [3]) and 0.55 µM in assay [1] (setting [4]). Further, the IC50 in assay [2] is above 50 µM.
The like results for `O=C1NC2=C(CCc3ccccc32)C(c2ccc3ccccc3c2)N1` (stereo not drawn) [compound 22346] were, in that order, at least 55 µM, above 50 µM and above 50 µM.
On to `O=C1NC2=C(CCc3ccccc32)C(c2cccc3c2OCO3)N1` (stereo not drawn) [compound 22411], for which the EC50 in assay [1] (setting [3]) and in assay [1] (setting [4]) was above 50 µM in each case. The IC50 in assay [2] was above 50 µM.
In the case of `COc1ccc(C2NC(=O)NC3=C2CN(C(=O)CNCCN2CCOCC2)c2ccccc23)cc1Br` (stereo not drawn) [compound 25011], the EC50 in assay [1] (setting [3]) and in assay [1] (setting [4]) was 3.9 µM each time. Further, in assay [2], the IC50 was above 40 µM.
Regarding `COc1cccc2c1CCc1c(-c3ccc(C)cc3)nc(O)nc1-2` [compound 22088], the EC50 in assay [1] (setting [5]) turned out to be 15.4 µM. In addition, the IC50 in assay [2] was above 50 µM.
With `Cc1cccc(C2NC(=O)NC3=C2CCc2ccccc23)c1` (stereo not drawn) [compound 22081], the EC50 in assay [1] (setting [4]) came out at 0.55 µM; in assay [1] (read-out: H5N1 EC50 (Inf Pt)), 0.52 µM. In assay [2], the IC50 was above 50 µM.
On to `COc1ccc(C2NC(=O)NC3=C2CN(C(=O)c2ccncc2)c2ccccc23)cc1Br` (stereo not drawn) [compound 23208], for which the EC50 in assay [1] (setting [3]) and in assay [1] (setting [4]) was above 40 µM each time. In assay [2], the half-inhibitory concentration (IC50) is above 40 µM.
Regarding `COc1ccc(C2NC(=O)NC3=C2CCc2ccccc23)c(OC)c1OC` (stereo not drawn) [compound 22410], the EC50 in assay [1] (setting [3]) and in assay [1] (setting [4]) was above 50 µM each time. Moreover, the IC50 in assay [2] was above 50 µM.
Take `Cc1cccc(-c2nc(O)nc3c2COc2ccccc2-3)c1` [compound 22110]: the EC50 in assay [1] (setting [3]) was 10.4 µM; in assay [1] (setting [4]) it was 8.6 µM. For the same compound, the IC50 in assay [2] is above 50 µM.
On to `COc1ccc(-c2nc(O)nc3c2Cc2ccccc2-3)cc1` [compound 22128], for which the EC50 in assay [1] (setting [3]) and in assay [1] (setting [4]) was above 50 µM throughout. In assay [2], the IC50 was above 50 µM.
Take `O=C1NC2=C(CCc3ccccc32)C(c2cccnc2)N1` (stereo not drawn) [compound 22086]: in assay [1] (setting [3]), the EC50 was above 50 µM. Besides, in assay [2], the IC50 was above 50 µM.
Consider `COCCOC(=O)N1CC2=C(NC(=O)NC2c2ccc(OC)c(Br)c2)c2ccccc21` (stereo not drawn) [compound 25576], for which the EC50 in assay [1] (setting [3]) is above 20 µM.
With `Cc1ccc(C2NC(=O)NC3=C2CCc2ccccc23)cc1C` (stereo not drawn) [compound 22082], the IC50 in assay [2] is above 50 µM.
As for `Nc1cccc(C2NC(=O)NC3=C2CCc2ccccc23)c1` (stereo not drawn) [compound 22348], the EC50 in assay [1] (setting [3]) and in assay [1] (setting [4]) was above 50 µM each time. Also, the IC50 in assay [2] is above 50 µM.
Regarding `Oc1nc(-c2ccc3c(c2)OCO3)c2c(n1)-c1ccccc1OC2c1ccccc1` (stereo not drawn) [compound 22422], the EC50 in assay [1] (setting [3]) and in assay [1] (setting [4]) was above 50 µM in each case. Moreover, the IC50 in assay [2] was above 50 µM.
Regarding `COc1ccc(C2NC(=O)NC3=C2CCN(C(=O)CO)c2ccccc23)cc1Br` (stereo not drawn) [28001A], the EC50 in assay [1] (setting [3]) was above 20 µM.
Consider `COc1ccc(C2NC(=O)N(Cl)C3=C2CCc2ccccc23)cc1Br` (stereo not drawn) [compound 22707], for which the results for the EC50 in assay [1] (setting [3]) and in assay [1] (setting [4]) were 0.192 µM and 0.186 µM, respectively. Moreover, in assay [2], the IC50 is above 50 µM.
`O=C1NC2=C(CCc3ccccc32)C(c2ccc(Cl)c(Cl)c2)N1` (stereo not drawn) [compound 22130]: the IC50 in assay [2] was above 50 µM.
As for `O=C1NC2=C(CCc3ccccc32)C(c2cc(Br)c(O)c(Br)c2)N1` (stereo not drawn) [compound 22702], the EC50 in assay [1] (setting [3]) and in assay [1] (setting [4]) was above 40 µM in each case. The IC50 in assay [2] is above 40 µM.
Turning to `CC1CC2=C(NC(=O)NC2c2ccc3c(c2)OCO3)c2ccccc21` (stereo not drawn) [compound 22342], the values for the EC50 in assay [1] (setting [3]) and in assay [1] (setting [4]) were 0.72 µM and 0.39 µM, respectively. Also, the IC50 in assay [2] is above 50 µM.
As for `COc1cc(C2NC(=O)NC3=C2CSc2ccccc23)ccc1F` (stereo not drawn) [compound 22519], the EC50 in assay [1] (setting [4]) stood at 6.5 µM. Further, the IC50 in assay [2] was above 50 µM.
For `COc1cc(C2NC(=O)NC3=C2CCc2ccccc23)ccc1O` (stereo not drawn) [compound 22408], the EC50 in assay [1] (setting [3]) and in assay [1] (setting [4]) was above 50 µM throughout. For the same compound, the IC50 in assay [2] is above 50 µM.
In the case of `COc1ccc(C2NC(=O)N(O)C3=C2CCc2ccccc23)cc1Br` (stereo not drawn) [compound 22708], the EC50 was 1.1 µM in assay [1] (setting [3]) and above 0.95 µM in assay [1] (setting [4]). Besides, the IC50 in assay [2] is above 50 µM.
For `COc1ccc(C2NC(=O)NC3=C2CN(S(C)(=O)=O)c2ccccc23)cc1Br` (stereo not drawn) [compound 23207], in that order: 29 µM, 31 µM and above 40 µM.
The like results for `COc1cc(-c2nc(O)nc3c2CCc2ccccc2-3)cc(OC)c1OC` [compound 22116] were, in that order, above 50 µM, above 50 µM and above 50 µM.
In the case of `Cn1c2c(c(-c3ccc4c(c3)OCO4)nc1=O)CCc1ccccc1-2` [compound 22403], the EC50 was 5.2 µM in assay [1] (setting [3]), 1.7 µM in assay [1] (setting [4]), 5.7 µM in assay [1] (setting [5]) and 2 µM in assay [1] (read-out: H5N1 EC50 (Inf Pt)). In addition, the IC50 in assay [2] is above 50 µM.
`CCN(CC)CC(=O)N1CC2=C(NC(=O)NC2c2ccc(OC)c(Br)c2)c2ccccc21` (stereo not drawn) [compound 24719]: the EC50 in assay [1] (setting [3]) and in assay [1] (setting [4]) was 1.2 µM each time. Also, in assay [2], the IC50 was above 40 µM.
On to `CCOC(=O)N1CC2=C(NC(=O)NC2c2ccc(OC)c(Br)c2)c2ccccc21` (stereo not drawn) [compound 25577], for which the EC50 in assay [1] (setting [3]) and in assay [1] (setting [4]) was above 20 µM each time.
`COc1ccc(C2NC(=O)NC3=C2CCN(C(=O)COC(C)=O)c2ccccc23)cc1Br` (stereo not drawn) [28002A]: in assay [1] (setting [3]), the EC50 was above 20 µM.
For `COc1ccc(C2NC(=O)NC3=C2CCN(C(C)=O)c2ccccc23)cc1Br` (stereo not drawn) [28000A], the EC50 in assay [1] (setting [3]) was above 20 µM.
Regarding `CCOC(=O)CCC(=O)N1CC2=C(NC(=O)NC2c2ccc(OC)c(Br)c2)c2ccccc21` (stereo not drawn) [compound 25578], the results for the EC50 in assay [1] (setting [4]) and in assay [1] (setting [5]) were above 10 µM and above 20 µM, respectively.
With `COc1ccc(C2NC(=O)NC3=C2CN(C(=O)OCCO)c2ccccc23)cc1Br` (stereo not drawn) [compound 25575], the EC50 in assay [1] (setting [3]) worked out at 4.7 µM.

As usually defined, the EC50 is the concentration giving half of the maximal effect. For orientation: IC50 means the concentration that inhibits the measured activity by half.
